test system: BaF3 BRAF-KIAA1549 fusion cells; test: BaF3 BRAF-KIAA1549 fusion cell proliferation assay; assay type: cell-based; settings: Mus musculus, BaF3, 96 h, read-out: IC50, inhibition of cell growth, BaF3-BRAF:KIAA1549 Fusion
Method: Retroviral Production: The BRAF-KIAA1549 fusion mutant was subcloned into pMXs-IRES-Blasticidin (RTV-016, Cell Biolabs, San Diego, CA). […]. Briefly, HEK 293T cells were plated in Poly-D-lysine coated 6-well plate (2.5×10^5 cells per well) and incubated overnight. The next day, retroviral plasmids (1 μg of BRAF-KIAA fusion mutant, 0.32 μg of pCMV-Gag-Pol and 0.165 μg pCMV-VSV-G) were mixed in 300 μL of Optimem (31985, Life Technologies). The mixture was incubated at room temperature for 5 minutes and then added to Optimem containing transfection reagent Lipofectamine (11668, Invitrogen) and incubated for 20 minutes. The mixture was then added dropwise to HEK 293T cells. The next day the medium was replaced with fresh culture medium and retrovirus was harvested at 24 hours.
Generation of BRAF-KIAA1549 fusion stable cell line: BaF3 cells were plated in V-bottom 96 well plate (COSTAR #3894) in 80 μL of RPMI/10% FBS and 0.01 ng/mL mouse IL-3, supplemented with 8 μg/mL polybrene (4×10^4 cells/well). Cells were transduced with 20 μL of BRAF-KIAA1549 fusion viral supernatant by centrifuging for 30 minutes at 1000 rpm. Cells were placed in a 37 °C incubator overnight. Next day 100 μL of RPMI/10% FBS and 0.01 ng/mL mouse IL-3 was added. After 24 hours, 100 μL of cells were transferred to a 24 well plate containing 900 μL of RPMI/10% FBS and 15 μg/mL Blasticidin. Contents of the 24 well plate were sampled for cell viability via CellTiterGlo (Promega) over a 2-week period.
Assay for cell proliferation: BaF3 BRAF-KIAA1549 fusion cells were resuspended at 1.5×10^5 c/mL in RPMI containing 10% Heat Inactivated FBS, 1% L-glutamine and dispensed in duplicate ([…]) into 384 well plates. To determine the effect of compound on cell proliferation, BaF3 BRAF-KIAA1549 fusion cells were incubated for 96 hours in the presence of vehicle control (DMSO) or compound at varying concentrations. Inhibition of cell growth was determined by luminescent quantification (Envision by Perkin Elmer) of intracellular ATP content using CellTiterGlo (Promega), according to the protocol provided by the manufacturer. To determine the IC50 values, the vehicle-treated cells were normalized as viable cells and analyzed using the CDD Vault, Collaborative Drug Discovery, Burlingame, CA (the Levenberg-Marquardt algorithm; Levenberg, K, […]; Marquardt, D., 1963).
Table A assigns each compound a code for potency in the BaF3 BRAF-KIAA1549 fusion cell proliferation assay: A, B, C, or D. According to the code, A represents an IC50 value<20 nM; B represents an IC50 value≥20 nM and <100 nM; C represents an IC50 value≥100 nM and <500 nM; and D represents an IC50 value≥500 nM.

SMILES | IC50 [nM]
CNc1cc2ncc(-c3cc(NC(=O)c4cnc5n4CC(C(F)F)CC5)ccc3C)cc2cn1 (stereo not shown) [compound 238] | 20 to 100
CNc1cc2ncc(-c3cc(NC(=O)c4cccc5c4OC(C)C5)cnc3C)cc2cn1 (stereo not shown) [compound 239] | > 500
CNc1cc2ncc(-c3cc(NC(=O)c4cnn(CC(F)(F)F)c4C)cnc3C)cc2cn1 [compound 240] | > 500
CNc1cc2ncc(-c3cc(NC(=O)c4noc5c4CC(C(C)(C)C)CC5)cnc3C)cc2cn1 (stereo not shown) [compound 241] | 100 to 500
CNc1cc2ncc(-c3cc(NC(=O)c4cc(C(O)CC(F)(F)F)ccn4)cnc3C)cc2cn1 (stereo not shown) [compound 242] | 20 to 100
CNc1cc2ncc(-c3cc(NC(=O)c4cnc5n4CC(C(F)(F)F)CC5)cnc3C)cc2cn1 (stereo not shown) [compound 243] | 20 to 100
CNc1cc2ncc(-c3cc(NC(=O)c4n[nH]c5c4CN(C)CC5)cnc3C)cc2cn1 [compound 244] | > 500
CNc1cc2ncc(-c3cc(NC(=O)c4noc5c4CCCCC5)cnc3C)cc2cn1 [compound 245] | 20 to 100
CNc1cc2ncc(-c3cc(NC(=O)c4noc5c4COCC5)cnc3C)cc2cn1 [compound 246] | > 500
CNc1cc2ncc(-c3cc(NC(=O)c4noc5c4CC(F)(F)CC5)cnc3C)cc2cn1 [compound 247] | 20 to 100
CNc1cc2ncc(-c3cc(NC(=O)c4cc([C@@H](C)C(C)(F)F)ccn4)cnc3C)cc2cn1 [compound 248] | 20 to 100
CNc1cc2ncc(-c3cc(NC(=O)c4cc([C@H](O)C(C)(F)F)ccn4)cnc3C)cc2cn1 [compound 249] | 20 to 100
CNCC(F)(F)c1cccc(C(=O)Nc2cnc(C)c(-c3cnc4cc(NC)ncc4c3)c2)n1 [compound 250] | > 500
CNc1cc2ncc(-c3cc(NC(=O)c4cnc5n4CC(C(F)F)CC5)cnc3C)cc2cn1 (stereo not shown) [compound 251] | 100 to 500
CNc1cc2ncc(-c3cc(NC(=O)c4n[nH]c5c4C[C@@H]4C[C@H]54)cnc3C)cc2cn1 [compound 252] | 20 to 100
CNc1cc2ncc(-c3cc(NC(=O)c4n[nH]c5c4C[C@H]4C[C@@H]54)cnc3C)cc2cn1 [compound 253] | 20 to 100
CNc1cc2ncc(-c3cc(NC(=O)c4noc5c4CN(C(C)C)CC5)cnc3C)cc2cn1 [compound 254] | 100 to 500
CNc1cc2ncc(-c3cc(NC(=O)c4cc(C(C)(C)C(N)=O)ccn4)ccc3C)cc2cn1 [compound 255] | 20 to 100
CNc1cc2ncc(-c3cc(NC(=O)c4nccc(C(C)C)c4Cl)cnc3C)cc2cn1 [compound 256] | 20 to 100

SMILES | IC50 [nM]
CNc1cc2ncc(-c3cc(NC(=O)c4noc5c4CC(C)(C)CC5)cnc3C)cc2cn1 [compound 257] | 20 to 100
CNc1cc2ncc(-c3cc(NC(=O)c4cnc5n4C[C@@H](C)CC5)cnc3C)cc2cn1 [compound 258] | 20 to 100
CNc1cc2ncc(-c3cc(NC(=O)c4cnc5n4C[C@H](C)CC5)cnc3C)cc2cn1 [compound 259] | 20 to 100
CCC(OC)c1ccnc(C(=O)Nc2cnc(C)c(-c3cnc4cc(NC)ncc4c3)c2)c1 (stereo not shown) [compound 260] | 20 to 100
CNc1cc2ncc(-c3cc(NC(=O)c4n[nH]c5c4CC(C)CC5)ccc3C)cc2cn1 (stereo not shown) [compound 261] | < 20
CNc1cc2ncc(-c3cc(NC(=O)c4n[nH]c5c4CCCC5(C)C)ccc3C)cc2cn1 [compound 262] | 20 to 100
CNc1cc2ncc(-c3cc(NC(=O)c4c[nH]c5ccc(C)cc45)ccc3C)cc2cn1 [compound 263] | < 20
CNc1cc2ncc(-c3cc(NC(=O)c4n[nH]c5c4C[C@H](C)O[C@@H]5C)ccc3C)cc2cn1 [compound 264] | 20 to 100
CNc1cc2ncc(-c3cc(NC(=O)c4cnn5c4CC(C)CC5)ccc3C)cc2cn1 (stereo not shown) [compound 265] | < 20
CNc1cc2ncc(-c3cc(NC(=O)c4c[nH]c5c4CC(C)CC5)ccc3C)cc2cn1 (stereo not shown) [compound 266] | 20 to 100
CNc1cc2ncc(-c3cc(NC(=O)N4CC[C@@H](CC(F)(F)F)C4)ccc3C)cc2cn1 [compound 267] | < 20
CNc1ncc2cc(-c3cc(NC(=O)c4ccnc(C5(F)CC5)c4)ccc3C)cnc2c1Cl [compound 269] | 100 to 500
CNc1ncc2cc(-c3cc(NC(=O)c4ccnc(C(C)(C)C#N)c4)cnc3C)cnc2c1Cl [compound 270] | > 500
CNc1ncc2cc(-c3cc(NC(=O)c4ccnc(C5(F)CC5)c4)ccc3C)cnc2c1C#N [compound 271] | 20 to 100
CNc1cc2c(C#N)cc(-c3cc(NC(=O)c4ccnc(C5(F)CC5)c4)ccc3C)cc2cn1 [compound 272] | 20 to 100
CNc1cc2c(C#N)cc(-c3cc(NC(=O)c4ccnc(C(F)(F)F)c4)ccc3C)cc2cn1 [compound 273] | 100 to 500
Cc1ncc(NC(=O)c2cc(C(F)(F)F)ccn2)cc1-c1ccc2c3c(ncc2c1)NC(=O)C3 [compound 274] | < 20
Cc1ccc(NC(=O)c2cc(C(C)(C)C#N)ccn2)cc1-c1ccc2c3c(ncc2c1)NC(=O)C3 [compound 275] | 20 to 100
Cc1ccc(NC(=O)c2ccnc(C(C)(C)F)c2)cc1-c1ccc2c3c(ncc2c1)NC(=O)C3 [compound 276] | < 20

test system: KRAS G12D patient-derived NSCLC tumor; test: Combination with binimetinib in mice with KRAS G12D NSCLC PDX model; assay type: in vivo, Nu/Nu mice; settings: 50 days, oral gavage; monotherapy or combination
Method: (§1) Anti-tumor activity of a compound of the present disclosure in combination with binimetinib was investigated in mice with KRAS G12D NSCLC patient-derived xenograft (PDX) model. Nu/Nu mice implanted with KRAS G12D patient-derived NSCLC tumor were randomized to control or treatment group when the overall average tumor mean volume was 172 mm^3. Mice were administered twice daily approximately 12 hours apart with vehicle, twice daily approximately 12 hours apart with binimetinib, and once daily with the compound of the present disclosure, or the combination for 50 days by oral gavage. […] For representative results of the study, see FIG. 2.

SMILES | body weight loss
Cn1cnc2c(F)c(Nc3ccc(Br)cc3F)c(C(=O)NOCCO)cc21 [binimetinib] | No significant body weight loss

test system: A375-Luc melanoma cells; test: Combination with binimetinib in mice with A375-Luc melanoma (BRAF V600E); assay type: in vivo, BALB/c nude mice; settings: 35 days, oral gavage; monotherapy or combination
Method: as §1, with “was also” for “was”, “with melanoma cell line with BRAF V600E mutation. BALB/c nude” for “with KRAS G12D NSCLC patient-derived xenograft (PDX) model. Nu/Nu”, “with A375-Luc melanoma cells” for “with KRAS G12D patient-derived NSCLC tumor”, “was 224” for “was 172”, “for 35” for “for 50”, “FIG. 3.” for “FIG. 2.”

SMILES | body weight loss
Cn1cnc2c(F)c(Nc3ccc(Br)cc3F)c(C(=O)NOCCO)cc21 [binimetinib] | No significant body weight loss
